In US7049311B1, “Pyrrolbenzodiazepines” (Spirogen Limited, priority 1998, dated 2006):
Where two headings read alike, the source gives them in different places.

What was measured:
calf thymus DNA = assay: DNA helix melting temperature assay; format: binding; conditions: [PBD]:[DNA] ratio of 1:5, calf thymus DNA
Procedure: The first assay, which is described in G. B. Jones, et al., Anti-Cancer Drug Des., 1990, 5, 249, which is incorporated herein by reference, determines the effect of the test compound on the helix melting temperature of DNA. This assay is designed to give an indication of the strength and extent of cross-linking of the DNA strands by the test compound (i.e. a measure of the stabilisation of the DNA upon ligand binding).
The melting temperature was determined for a 1:5 molar ratio of [ligand] [DNA], where the calf thymus DNA concentration is […] in aqueous sodium phosphate buffer (10 mM sodium phosphate+1 mM EDTA, pH 7.00±0.01). For calf thymus DNA at pH 7.00±0.01, the melting temperature is 67.83±0.06° C. (mean value from 30 separate determinations).

[1] = test system: human ovarian carcinoma cell line A2780; assay: Cytotoxicity in A2780 (Example 9); format: cell-based; conditions: read-out: IC50 A2780
Procedure: (§1) Relative to the parental line, the A2780cisR subline is known to have elevated GSH levels, an increased level of repair of DNA-cisplatin adducts, and a decreased ability to uptake cisplatin (M. Smellie, et al., Br. J. Cancer, 1994, 70, 48).
(§2) The results, which were obtained by incubating the cells with the compounds for 96 hours at 37° C., and assessing the cell number using Sulforhodamine B, are presented in the table below: […]

A2780cisR [2] = assay: Cytotoxicity in cisplatin-resistant A2780cisR (Example 9); format: cell-based, human
Procedure: as §1, §2

COLO 205 = assay: NCI in vitro cytotoxicity screen; format: cell-based; conditions: Homo sapiens, COLO 205, 48 h, read-out: LC50
Procedure: (§3) The National Cancer Institute (NCI), Bethesda, Md., USA has available an in vitro cytotoxicity screen which consists of approximately 60 human tumour cell lines against which compounds are tested at a minimum of five concentrations each differing 10-fold. A 48 hour continuous exposure protocol is used, where cell viability or growth is estimated with an SRB protein assay.
(§4) The test compounds were evaluated against approximately 60 human tumour cell lines. The NCI screening procedures were described in detail by Monks and co-workers (Monks, A et al., Journal of the National Cancer Institute, 1991, 83, 757). Briefly, cell suspensions were diluted according to the particular cell type and the expected target cell density (5000-40,000 cells per well based on cell growth characteristics), and added by pipette (100 μL) into 96-well microtitre plates. The cells were allowed a preincubation period of 24 hours at 37° C. for stabilisation. Dilutions at twice the intended test concentration were added at time zero in 100 μL aliquots to the wells. The test compounds were evaluated at five 10-fold dilutions (10^−4, 10^−5, 10^−6, 10^−7 and 10^−[…]). The test compounds were incubated for 48 hours in 5% CO2 atmosphere and 100% humidity. The cells were then assayed using the sulphorhodamine B assay. A plate reader was used to read the optical densities and a microcomputer processed the readings into LC50 values, which is the dosage required to kill half of the cells.

M14 = assay: NCI in vitro cytotoxicity screen; format: cell-based; conditions: Homo sapiens, M14, 48 h, read-out: LC50
Procedure: as §3, §4

MALME-3M = assay: NCI in vitro cytotoxicity screen; format: cell-based; conditions: Homo sapiens, Malme-3M, 48 h, read-out: LC50
Procedure: as §3, §4

MDA-MB-435 = assay: NCI in vitro cytotoxicity screen; format: cell-based; conditions: Homo sapiens, MDA-MB-435, 48 h, read-out: LC50
Procedure: as §3, §4

MDA-N = assay: NCI in vitro cytotoxicity screen; format: cell-based; conditions: Homo sapiens, 48 h, read-out: LC50
Procedure: as §3, §4

NCI-H522 = assay: NCI in vitro cytotoxicity screen; format: cell-based; conditions: Homo sapiens, NCI-H522, 48 h, read-out: LC50
Procedure: as §3, §4

RXF 393 = assay: NCI in vitro cytotoxicity screen; format: cell-based; conditions: Homo sapiens, RXF 393, 48 h, read-out: LC50
Procedure: as §3, §4

SF-539 = assay: NCI in vitro cytotoxicity screen; format: cell-based; conditions: Homo sapiens, SF-539, 48 h, read-out: LC50
Procedure: as §3, §4

SK-MEL-28 = assay: NCI in vitro cytotoxicity screen; format: cell-based; conditions: Homo sapiens, SK-MEL-28, 48 h, read-out: LC50
Procedure: as §3, §4

SNB-75 = assay: NCI in vitro cytotoxicity screen; format: cell-based; conditions: Homo sapiens, SNB-75, 48 h, read-out: LC50
Procedure: as §3, §4

UACC-62 = assay: NCI in vitro cytotoxicity screen; format: cell-based; conditions: Homo sapiens, UACC-62, 48 h, read-out: LC50
Procedure: as §3, §4

A2780cisR [3] = assay: Ovarian carcinoma cytotoxicity assay; format: cell-based, human; conditions: Homo sapiens, A2780cisR
Procedure: (§5) Compounds of the invention (and Anthramycin as a comparison) were evaluated for their cytotoxic activity in ovarian cell lines by Dr Lloyd R. Kelland's group at The Institute of Cancer Research, Sutton, UK. The five cell lines investigated were SKOV-3, A2780/A2780cisR and CH1/CH1cisR (cis R denotes that the cell line is resistant to cisplatin).
(§6) Single viable cells were seeded in growth medium (160 μL) in […] microtitre plates and allowed to attach overnight. […] After 96 hours, the medium was removed and the remaining cells fixed by exposure to 10% trichloroacetic acid on ice for 30 minutes. The wells were then washed 3-4 times with tap water, air dried overnight and treated with 100 μL of sulphorhodamine B (0.4%) dissolved in 1% acetic acid. Staining was allowed to continue for 10-15 minutes, then the wells were washed 3-4 times with 1% acetic acid, air dried and then added to Tris base (100 μL of 10 mM). Plates were then shaken and absorbance readings at 540 nm were determined using a plate reader. By using the Quattro-Pro software package, the IC50 values were calculated from plots of concentration versus percentage absorbance (compared with 8 untreated wells).

A2780 = assay: Ovarian carcinoma cytotoxicity assay; format: cell-based, human; conditions: Homo sapiens
Procedure: as §5, §6

CH1cisR = assay: Ovarian carcinoma cytotoxicity assay; format: cell-based; conditions: Homo sapiens, CH1cisR
Procedure: as §5, §6

CH1 = assay: Ovarian carcinoma cytotoxicity assay; format: cell-based; conditions: Homo sapiens
Procedure: as §5, §6

SKOV-3 = assay: Ovarian carcinoma cytotoxicity assay; format: cell-based; conditions: Homo sapiens
Procedure: as §5, §6

SK-MEL-2 = assay: NCI in vitro cytotoxicity screen; format: cell-based; conditions: Homo sapiens, SK-MEL-2, 48 h, read-out: LC50
Procedure: as §3, §4

UACC-257 = assay: NCI in vitro cytotoxicity screen; format: cell-based; conditions: Homo sapiens, UACC-257, 48 h, read-out: LC50
Procedure: as §3, §4

[4] = cisplatin-resistant, 96 hours, sulphorhodamine B, read-out: IC50 A2780cisR
[5] = A2780, 96 hours, sulphorhodamine B, read-out: IC50 A2780
[6] = cisplatin-resistant, 96 hours, sulphorhodamine B, read-out: IC50 CH1cisR
[7] = CH1, 96 hours, sulphorhodamine B, read-out: IC50 CH1
[8] = SK-OV-3, 96 hours, sulphorhodamine B, read-out: IC50 Skov3

| Structure (SMILES) | CC50 (COLO 205) [nM] | CC50 (MALME-3M) [nM] | CC50 (MDA-MB-435) [nM] | CC50 (RXF 393) [nM] | CC50 (SK-MEL-28) [nM] | CC50 (UACC-62) [nM] | CC50 (SK-MEL-2) [nM] | IC50 (A2780cisR [3]; [4]) [nM] | IC50 (A2780; [5]) [nM] | IC50 (CH1cisR; [6]) [nM] | IC50 (CH1; [7]) [nM] | IC50 (SKOV-3; [8]) [nM] | also measured |
| --- | --- | --- | --- | --- | --- | --- | --- | --- | --- | --- | --- | --- | --- |
| COc1cc2c(cc1OCCCOc1cc3c(cc1OC)C(=O)N1CCC[C@@H]1C=N3)N=C[C@@H]1CCCN1C2=O [DSB-120, reference compound] |  |  |  |  |  |  |  |  |  |  |  |  | Induced ΔTa after incubation at 37° C. for 0 h (calf thymus DNA; pH 7.00, 0 h): 10.2 °C; Induced ΔTa after incubation at 37° C. for 4 h (calf thymus DNA; pH 7.00, 4 h): 13.1 °C; Induced ΔTa after incubation at 37° C. for 18 h (calf thymus DNA; pH 7.00, 18 h): 15.1 °C; IC50 ([1]; Homo sapiens, A2780, 96 hours): 7.2 nM; IC50 (A2780cisR [2]; Homo sapiens, A2780cisR, 96 h, read-out: IC50 A2780cisR): 210 nM; IC50 (A2780cisR [2]; Homo sapiens, A2780cisR, 96 h, read-out: IC50 A2780cis^a): 210 nM |
| COc1cc2c(cc1OCc1ccccc1)N=C[C@@H]1CC(=O)CN1C2=O [UP2067 (172)] | 5800 | 7400 | 800 | 800 | 6600 | 3000 |  |  |  |  |  |  | CC50 (M14): 800 nM; CC50 (MDA-N): 600 nM; CC50 (NCI-H522): 5000 nM; CC50 (SF-539): 6800 nM; CC50 (SNB-75): 5400 nM; IC50 (A2780cisR [3]; 96 h, read-out: IC50 A2780cisR, cisplatin-resistant, 96 hours, sulphorhodamine B): 390 nM; IC50 (A2780; A2780, 96 h, read-out: IC50 A2780, 96 hours, sulphorhodamine B): 115 nM; IC50 (CH1cisR; 96 h, read-out: IC50 CH1cisR, cisplatin-resistant, 96 hours, sulphorhodamine B): 180 nM; IC50 (CH1; CH1, 96 h, read-out: IC50 CH1, 96 hours, sulphorhodamine B): 165 nM; IC50 (SKOV-3; SK-OV-3, 96 h, read-out: IC50 Skov3, 96 hours, sulphorhodamine B): 540 nM |
| COC(=O)CC1=CN2C(=O)c3cc(OC)c(OC)cc3N=C[C@@H]2C1 [UP2065 (42)] | 4000 | 4700 | 800 | 800 |  |  | 3500 | 460 | 360 | 150 | 115 | 450 |  |
| C=C1C[C@H]2C=Nc3cc(OC)c(OC)cc3C(=O)N2C1 [UP2064 (74), (11aS)-7,8-Dimethoxy-2-methylidene-1,2,3,11a-tetrahydro-5H-pyrrolo[2,1-c][1.4]benzodiazepin-5-one] | 600 | 900 | 2300 | 800 | 2600 | 600 | 1700 | 360 | 150 | 84 | 66 | 390 | CC50 (UACC-257): 7400 nM |
| N.N.[Cl][Pt][Cl] [Cisplatin, reference compound] |  |  |  |  |  |  |  |  |  |  |  |  | IC50 ([1]; 96 hours at 37° C., Sulforhodamine B): 265 nM; IC50 (A2780cisR [2]; cisplatin-resistant subline, 96 hours at 37° C., Sulforhodamine B, read-out: IC50 A2780cis^a): 8400 nM |
